Data as given in patent US20070060558A1 (PALUMED S.A., priority 2004, published 2007).
≈ marks a conversion by molar mass, not a printed value.

Tests used:
[1] = tested on: Staphylococcus aureus MSSA CIP 4.83; test: Antibacterial activity (MIC/MBC); format: cell-based; details: Staphylococcus aureus; S. aureus MSSA CIP 4.83; read-out: MIC
S. aureus NorA 1199B = test: Antibacterial activity (MIC); format: cell-based, Staphylococcus aureus
S. pneumoniae PRSP = test: Antibacterial activity (MIC), Table VII; format: cell-based; details: Streptococcus pneumoniae; S. pneumoniae PRSP (Table VII); read-out: MIC
[2] = tested on: E. faecalis VRE CIP 104676; test: Antibacterial activity (MIC/MBC); format: cell-based, Enterococcus faecalis; details: Enterococcus faecalis; E. faecalis VRE CIP 104676; read-out: MIC
H. influenzae CIP 102514 = test: Antibacterial activity (MIC/MBC); format: cell-based, Haemophilus influenzae; details: Haemophilus influenzae, CIP102514; H. influenzae CIP 102514; read-out: MIC
E. coli CIP 54127 = test: Antibacterial activity (MIC); format: cell-based; details: Escherichia coli, CIP54127; E. coli CIP 54127; read-out: MIC
P. aeruginosa CIP 103467 = test: Antibacterial activity (MIC); format: cell-based; details: Pseudomonas aeruginosa, CIP103467; P. aeruginosa CIP 103467; read-out: MIC
B. subtilis CIP 5262 = test: Antibacterial activity (MIC); format: cell-based; details: Bacillus subtilis, CIP5262; B. subtilis CIP 5262; read-out: MIC
[3] = tested on: B. thuringiensis CIP 104676; test: Antibacterial activity (MIC); format: cell-based; details: Bacillus thuringiensis, CIP104676; B. thuringiensis CIP 104676; read-out: MIC
[4] = tested on: S. aureus MRSA clinical isolate; test: Antibacterial activity (MIC); format: cell-based, Staphylococcus aureus; details: Staphylococcus aureus; S. aureus MRSA clinical isolate; read-out: MIC
[5] = tested on: S. pneumoniae PSSP CQI 201; test: Antibacterial activity (MIC); format: cell-based, Streptococcus pneumoniae; details: Streptococcus pneumoniae; S. pneumoniae PSSP CQI 201; read-out: MIC
[6] = tested on: S. pneumoniae PRSP clinical isolate; test: Antibacterial activity (MIC/MBC); format: cell-based, Streptococcus pneumoniae; details: Streptococcus pneumoniae, PRSP, read-out: MIC
S. pneumoniae mefE = test: Antibacterial activity (MIC); format: cell-based; details: Streptococcus pneumoniae; S. pneumoniae mefE (macrolide-resistant by efflux)
S. pyogenes CIP 56.41T = test: Antibacterial activity (MIC/MBC); format: cell-based, Streptococcus pyogenes; details: Streptococcus pyogenes, CIP56; S. pyogenes CIP 56.41T; read-out: MIC
B. fragilis API 7716 = test: Antibacterial activity (MIC); format: cell-based; details: Bacteroides fragilis, API7716
[7] = Staphylococcus aureus, NORA1199B

Row | SMILES | MIC [1] | MIC (S. aureus NorA 1199B; [7]) | MIC (S. pneumoniae PRSP) | MIC [2] | MIC (H. influenzae CIP 102514) | MIC (E. coli CIP 54127) | MIC (P. aeruginosa CIP 103467) | MIC (B. subtilis CIP 5262) | MIC [3] | MIC (B. fragilis API 7716) | further results
1 | O=C(O)c1cn(C2CC2)c2cc(N3CCNCC3)c(F)cc2c1=O [Ciprofloxacin, reference compound] | 0.312 µg/mL (≈ 0.942 µM) | > 50 µg/mL | 1.25 µg/mL (≈ 3.77 µM) | 1.25 µg/mL (≈ 3.77 µM) | 0.1 µg/mL (≈ 0.302 µM) | 0.01 µg/mL (≈ 0.0302 µM) | 0.156 µg/mL (≈ 0.471 µM) | 0.04 µg/mL (≈ 0.121 µM) | 0.156 µg/mL (≈ 0.471 µM) | – | MIC (S. aureus NorA 1199B; S. aureus NorA 1199B (quinolone-resistant by efflux)): >50 µg/mL
2 | CC[C@H]1OC(=O)[C@H](C)[C@@H](O[C@H]2C[C@@](C)(OC)[C@@H](O)[C@H](C)O2)[C@H](C)[C@@H](O[C@@H]2O[C@H](C)C[C@H](N(C)C)[C@H]2O)[C@](C)(O)C[C@@H](C)C(=O)[C@H](C)[C@@H](O)[C@]1(C)O [Erythromycin, reference compound] | 0.156 µg/mL (≈ 0.213 µM) | – | – | – | – | – | – | – | – | – | MIC [4]: 0.156 µg/mL (≈ 0.213 µM); MIC [5]: 0.039 µg/mL (≈ 0.0531 µM); MIC [6]: > 5 µg/mL; MIC (S. pneumoniae mefE): 5 µg/mL (≈ 6.81 µM); MIC (S. pyogenes CIP 56.41T): 0.039 µg/mL (≈ 0.0531 µM)
3 | Cc1ncc([N+](=O)[O-])n1CCO [Metronidazole, reference compound] | – | – | – | – | – | – | – | – | – | 0.2 µg/mL (≈ 1.17 µM) | –
4 | Cl.O=C(O)c1cn(C2CC2)c2cc(N3CCN(CCNc4ccnc5cc(Cl)ccc45)CC3)c(F)cc2c1=O [PA 1127, 7-{4-[2-(7-Chloroquinolin-4-ylamino)-ethyl]-piperazin-1-yl}-1-cyclopropyl-6-fluoro-4-oxo-1,4-dihydroquinoline-3-carboxylic acid hydrochloride] | 1.25 µg/mL | 3 µg/mL | 2.5 µg/mL | 1.25 µg/mL | 0.156 µg/mL | 0.156 µg/mL | 5 µg/mL | 0.312 µg/mL | 0.625 µg/mL | – | –
5 | Cc1ncc([N+](=O)[O-])n1CCNc1ccnc2cc(Cl)ccc12 [PA 1129, (7-Chloroquinolin-4-yl)-[2-(2-methyl-5-nitroimidazol-1-yl)-ethyl]-amine] | – | – | – | – | – | – | – | – | – | 0.78 µg/mL (≈ 2.35 µM) | –
